From PubChem BioAssay (NCI)
Values joined by “and” are separate entries in the source; they are usually repeats but may differ in a detail not shown here. Identical values can stand only once.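 Cells were grown in 96-well plates and exposed to each compound for 48 hours at five concentrations; endpoints were interpolated linearly between bracketing concentrations, or set to the highest concentration if not reached. GI50 marks 50% less growth. TGI marks complete inhibition of growth.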

Key:
Test in all cases: NCI tumour cell line growth inhibition, 48 h
SNB-19 CNS = system: SNB-19 CNS
ACHN renal = system: ACHN renal
IGROV1 ovarian = system: IGROV1 ovarian
OVCAR-5 ovarian = system: OVCAR-5 ovarian
EKVX NSCLC = system: EKVX NSCLC
NCI-H23 lung = system: NCI-H23 lung
A549 NSCLC = system: A549 NSCLC
HCT-116 colon = system: HCT-116 colon

SMILES	GI50 (SNB-19 CNS)	TGI (SNB-19 CNS)	GI50 (ACHN renal)	TGI (ACHN renal)	GI50 (IGROV1 ovarian)	TGI (IGROV1 ovarian)	GI50 (OVCAR-5 ovarian)	TGI (OVCAR-5 ovarian)	GI50 (EKVX NSCLC)	TGI (EKVX NSCLC)	GI50 (NCI-H23 lung)	TGI (NCI-H23 lung)	GI50 (A549 NSCLC)	TGI (A549 NSCLC)	GI50 (HCT-116 colon)	TGI (HCT-116 colon)
O=C(c1ccccc1O)c1[nH]c(Cl)c(Cl)c1-n1c(C(=O)c2ccccc2O)cc(Cl)c1Cl	1.49 µM and 0.917 µM	15.4 µM and 15.6 µM	1.54 µM and 0.591 µM	9.41 µM and 9.11 µM	1.54 µM and 1.45 µM	20.5 µM and 15.1 µM	2.54 µM and 2.73 µM	9.87 µM and 14.6 µM	0.549 µM	10 µM	0.418 µM and 0.409 µM	6.8 µM and 11.7 µM	2.69 µM and 1.8 µM	10.9 µM and 14.6 µM	0.336 µM and 0.344 µM	4.76 µM and 10.4 µM
Cc1cc(O)cc(C)c1/C=C/c1cncc(C(=O)OC(C)(C)C)c1	> 25 µM	> 25 µM	12.7 µM	> 25 µM	13.2 µM	> 25 µM	> 25 µM	> 25 µM	12.6 µM	> 25 µM	> 20 µM	> 25 µM	9.23 µM	> 25 µM	14.1 µM	> 25 µM
COc1cc(NC(C)CCCN)c2ncccc2c1Sc1ccc(Cl)cc1 (stereo unspecified)	1.8 µM	3.46 µM	1.79 µM	3.22 µM	2.31 µM	5.31 µM	1.73 µM	3.28 µM	2.14 µM	4.72 µM	1.7 µM	3.3 µM	1.65 µM	3.01 µM	1.7 µM	3.27 µM
COc1cc2c(cc1O)C(c1cc(O)c(O)c(OC)c1)C(O)(C(=O)O)C(CO)C2O (stereo unspecified)	–	> 100 µM	–	> 100 µM	–	> 100 µM	–	> 100 µM	–	36.9 µM	–	> 100 µM	–	> 100 µM	–	42.7 µM
Nc1cc2nc3ccccc3oc-2cc1=O	5.44 µM	16 µM	12.4 µM	> 79 µM	2.79 µM	21.2 µM	2.41 µM	5.79 µM	7.38 µM	> 64.2 µM	0.811 µM	3.56 µM	1.66 µM	3.84 µM	6.1 µM	> 68 µM
CC1(C)N=C(N)N=C(N)N1c1ccc(Cl)c(Cl)c1	1 µM	> 100 µM	0.683 µM	> 100 µM	0.356 µM	> 100 µM	0.252 µM	> 100 µM	1.97 µM	> 100 µM	0.453 µM	> 100 µM	0.152 µM	> 100 µM	0.0549 µM	> 100 µM
Oc1c2c(c(O)c3ccccc13)C1(N=N2)c2ccccc2Oc2ccccc21	–	32.4 µM	–	16 µM	–	10.2 µM	–	26.5 µM	–	28.3 µM	–	> 100 µM	–	66.5 µM	–	17.7 µM
NCCN1C(=O)c2ccccc2C1(O)c1ccc(Cl)cc1 (stereo unspecified)	–	61 µM	–	59.3 µM	–	41 µM	–	39.8 µM	–	52.3 µM	–	> 100 µM	–	67.3 µM	–	31.7 µM
FC(F)(F)c1[nH]ncc1-c1nc2ccc3[nH]ncc3c2c2c1CCCC2	2.64 µM	9.09 µM	1.39 µM	9.62 µM	0.942 µM	5 µM	2.51 µM	13.1 µM	1.99 µM	7.29 µM	1.52 µM	4.32 µM	1.77 µM	8.45 µM	0.523 µM	10.6 µM
CCN(CC)c1ccc(/C=C/C=C(/C#N)C(N)=S)cc1	40.4 µM	> 100 µM	24 µM	> 100 µM	17.9 µM	> 100 µM	4.83 µM	> 100 µM	6.5 µM	> 100 µM	8.45 µM	> 100 µM	5.94 µM	> 100 µM	3.58 µM	17.7 µM
CC(=O)/C(=C\c1c(-c2ccccc2)[nH]c2ccccc12)S(=O)(=O)c1ccccc1	4.14 µM	12.1 µM	2.06 µM	5.09 µM	1.51 µM	4.37 µM	2.01 µM	5.46 µM	3.22 µM	> 100 µM	1.48 µM	5.52 µM	6.73 µM	41.9 µM	0.727 µM	2 µM
O=c1cc(O)c2c(O)cc(O)cc2o1	–	> 100 µM	–	> 100 µM	–	> 100 µM	–	> 100 µM	–	> 100 µM	–	> 100 µM	–	> 100 µM	–	> 100 µM
CC(=O)NC1=C(Sc2ccc(Cl)cc2)C(=O)c2ccccc2C1=O	–	28.6 µM	–	4.85 µM	–	17.1 µM	–	23.9 µM	–	18.9 µM	–	37 µM	–	> 100 µM	–	–
CCCC#CCOC(=O)c1cc([N+](=O)[O-])cc([N+](=O)[O-])c1	–	> 100 µM	–	> 100 µM	–	> 100 µM	–	> 100 µM	–	> 100 µM	–	> 100 µM	–	> 100 µM	–	> 100 µM
CNC(=O)c1cc2c(Oc3ccc(NC(=S)NC(=O)Cc4ccccc4)cc3F)ccnc2cc1OC	> 100 µM	> 100 µM	3.5 µM	> 100 µM	5.96 µM	> 100 µM	> 36.1 µM	> 100 µM	> 100 µM	> 100 µM	3.13 µM	> 100 µM	> 48.6 µM	> 100 µM	59.5 µM	> 100 µM
CC(C)(C)OC(=O)NCCCCCCCCCCn1c2c(c3ccccc3c1=O)C(=O)c1ccccc1-2	44.1 µM	> 100 µM	18.5 µM	66 µM	–	–	> 100 µM	> 100 µM	> 100 µM	> 100 µM	34.2 µM	> 100 µM	> 100 µM	> 100 µM	60 µM	> 100 µM
Cc1ncc(-c2ccnc(Nc3ccc(S(C)(=O)=O)cc3)n2)n1C(C)C	2.23 µM	> 10 µM	0.603 µM	> 9.54 µM	0.758 µM	> 7.91 µM	1.09 µM	> 8.88 µM	1.56 µM	5.54 µM	1.79 µM	7.17 µM	1.34 µM	> 10 µM	0.275 µM	> 10 µM
